Data reported in ChEMBL document CHEMBL1201862, “PubChem BioAssay data set” (2004).
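Following 48 hours of exposure in 96-well plates, responses at five concentrations were used to interpolate endpoints linearly. Abbreviation: GI50, concentration required for 50% inhibition of growth.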 The source made the active and inactive calls. Cut-off read from the data, not from the text of the source: active = GI50 up to about 1.1 µM and inactive = higher.

Assays:
Experiment in all cases: growth of human tumour cells (NCI), 48 h
BT-549 = tested on: BT-549
HCT-15 = tested on: HCT-15
U-251 = tested on: U-251
OVCAR-5 = tested on: OVCAR-5
786-0 = tested on: 786-0
M14 = tested on: M14
SN12C = tested on: SN12C
NCI-H522 = tested on: NCI-H522
HOP-92 = tested on: HOP-92
PC-3 = tested on: PC-3
A549 = tested on: A549
TK-10 = tested on: TK-10
MCF7 = tested on: MCF7
IGROV-1 = tested on: IGROV-1
RXF 393 = tested on: RXF 393
KM12 = tested on: KM12
OVCAR-8 = tested on: OVCAR-8
UACC-62 = tested on: UACC-62
DU-145 = tested on: DU-145
HT-29 = tested on: HT-29

## Brc1ccc2c(c1)-c1nc3nc4c(cc3cc1CC2)CCc1ccc(Br)cc1-4
BT-549
  GI50: > 100 µM (inactive)
HCT-15
  GI50: > 100 µM
U-251
  GI50: > 100 µM (inactive)
OVCAR-5
  GI50: > 100 µM (inactive)
786-0
  GI50: > 100 µM (inactive)
M14
  GI50: > 100 µM (inactive)
SN12C
  GI50: > 100 µM (inactive)
NCI-H522
  GI50: > 100 µM (inactive)
HOP-92
  GI50: > 100 µM (inactive)
PC-3
  GI50: > 100 µM (inactive)
A549
  GI50: > 100 µM (inactive)
TK-10
  GI50: > 100 µM (inactive)
MCF7
  GI50: > 100 µM (inactive)
IGROV-1
  GI50: > 100 µM (inactive)
RXF 393
  GI50: > 100 µM (inactive)
KM12
  GI50: 62.7 µM (inactive)
OVCAR-8
  GI50: > 100 µM (inactive)

## CCCSc1cc(Cl)c(C)cc1S(=O)(=O)n1ccnc1O
BT-549
  GI50: > 100 µM (inactive)
HCT-15
  GI50: > 100 µM
U-251
  GI50: > 100 µM (inactive)
OVCAR-5
  GI50: > 100 µM (inactive)
786-0
  GI50: > 100 µM (inactive)
UACC-62
  GI50: > 100 µM (inactive)
M14
  GI50: > 100 µM (inactive)
DU-145
  GI50: > 100 µM (inactive)
SN12C
  GI50: > 100 µM (inactive)
NCI-H522
  GI50: > 100 µM (inactive)
PC-3
  GI50: > 100 µM (inactive)
A549
  GI50: > 100 µM (inactive)
TK-10
  GI50: > 100 µM (inactive)
MCF7
  GI50: > 100 µM (inactive)
IGROV-1
  GI50: > 100 µM (inactive)
RXF 393
  GI50: > 100 µM (inactive)
KM12
  GI50: > 100 µM (inactive)
OVCAR-8
  GI50: > 100 µM (inactive)
HT-29
  GI50: > 100 µM (inactive)

## COc1cc(OCc2ccc3oc(=O)c(-c4ccccc4)nc3c2)cc(OC)c1OC
BT-549
  GI50: > 100 µM (inactive)
HCT-15
  GI50: > 100 µM
U-251
  GI50: > 100 µM (inactive)
OVCAR-5
  GI50: > 100 µM (inactive)
786-0
  GI50: > 100 µM (inactive)
UACC-62
  GI50: > 100 µM (inactive)
M14
  GI50: > 100 µM (inactive)
DU-145
  GI50: > 100 µM (inactive)
SN12C
  GI50: > 100 µM (inactive)
NCI-H522
  GI50: > 100 µM (inactive)
PC-3
  GI50: > 100 µM (inactive)
A549
  GI50: > 100 µM (inactive)
TK-10
  GI50: > 100 µM (inactive)
MCF7
  GI50: > 100 µM (inactive)
IGROV-1
  GI50: > 100 µM (inactive)
RXF 393
  GI50: > 100 µM (inactive)
OVCAR-8
  GI50: > 100 µM (inactive)
HT-29
  GI50: > 100 µM (inactive)

## O=C(O)c1cc(CCc2ccc(O)c(O)c2)ccc1O
BT-549
  GI50: > 100 µM (inactive)
HCT-15
  GI50: > 100 µM
U-251
  GI50: > 100 µM (inactive)
OVCAR-5
  GI50: > 100 µM (inactive)
786-0
  GI50: > 100 µM (inactive)
UACC-62
  GI50: > 100 µM (inactive)
M14
  GI50: > 100 µM (inactive)
DU-145
  GI50: > 100 µM (inactive)
SN12C
  GI50: > 100 µM (inactive)
NCI-H522
  GI50: > 100 µM (inactive)
PC-3
  GI50: > 100 µM (inactive)
A549
  GI50: > 100 µM (inactive)
MCF7
  GI50: > 100 µM (inactive)
IGROV-1
  GI50: > 100 µM (inactive)
KM12
  GI50: > 100 µM (inactive)
OVCAR-8
  GI50: > 100 µM (inactive)
HT-29
  GI50: > 100 µM (inactive)

## CCN1C[C@]2(COC)[C@H](O)C[C@H](OC)[C@]34C1[C@H]([C@H](OC)[C@H]23)[C@]1(OC(C)=O)[C@H]2[C@@H](OC(=O)c3ccccc3)[C@](O)(C[C@H]24)[C@@H](OC)[C@@H]1O
BT-549
  GI50: > 100 µM (inactive)
HCT-15
  GI50: > 100 µM
U-251
  GI50: > 100 µM (inactive)
OVCAR-5
  GI50: > 100 µM (inactive)
786-0
  GI50: > 100 µM (inactive)
UACC-62
  GI50: > 100 µM (inactive)
M14
  GI50: > 100 µM (inactive)
DU-145
  GI50: > 100 µM (inactive)
SN12C
  GI50: > 100 µM (inactive)
NCI-H522
  GI50: > 100 µM (inactive)
HOP-92
  GI50: > 100 µM (inactive)
PC-3
  GI50: > 100 µM (inactive)
A549
  GI50: > 100 µM (inactive)
TK-10
  GI50: > 100 µM (inactive)
MCF7
  GI50: > 100 µM (inactive)
IGROV-1
  GI50: > 100 µM (inactive)
KM12
  GI50: > 100 µM (inactive)
OVCAR-8
  GI50: > 100 µM (inactive)
HT-29
  GI50: > 100 µM (inactive)

## COc1cc(CCC(=O)O)c2cc3ccccc3cc2c1O
BT-549
  GI50: 17.1 µM (inactive)
HCT-15
  GI50: 18.2 µM
U-251
  GI50: 16.4 µM (inactive)
OVCAR-5
  GI50: 20.4 µM (inactive)
786-0
  GI50: 16.8 µM (inactive)
UACC-62
  GI50: 18.4 µM (inactive)
M14
  GI50: 21.7 µM (inactive)
SN12C
  GI50: 17.8 µM (inactive)
NCI-H522
  GI50: 20.7 µM (inactive)
HOP-92
  GI50: 30.9 µM (inactive)
PC-3
  GI50: 18.5 µM (inactive)
A549
  GI50: 22.1 µM (inactive)
TK-10
  GI50: 33.3 µM (inactive)
MCF7
  GI50: 16.4 µM (inactive)
IGROV-1
  GI50: 18.7 µM (inactive)
KM12
  GI50: 20.5 µM (inactive)
OVCAR-8
  GI50: 16.3 µM (inactive)
HT-29
  GI50: 21.1 µM (inactive)

## CC(=O)Oc1cc2c(n(C)c1=O)CCC2
BT-549
  GI50: > 100 µM (inactive)
HCT-15
  GI50: 33.6 µM
U-251
  GI50: > 100 µM (inactive)
OVCAR-5
  GI50: > 100 µM (inactive)
786-0
  GI50: > 100 µM (inactive)
M14
  GI50: > 100 µM (inactive)
DU-145
  GI50: > 100 µM (inactive)
SN12C
  GI50: > 100 µM (inactive)
NCI-H522
  GI50: > 10 µM (inactive)
HOP-92
  GI50: > 100 µM (inactive)
PC-3
  GI50: > 100 µM (inactive)
A549
  GI50: > 100 µM (inactive)
TK-10
  GI50: > 100 µM (inactive)
MCF7
  GI50: > 100 µM (inactive)
IGROV-1
  GI50: > 100 µM (inactive)
KM12
  GI50: > 100 µM (inactive)
OVCAR-8
  GI50: 94.4 µM (inactive)
HT-29
  GI50: > 100 µM (inactive)

## CC[C@H](NC(=O)OC(C)(C)C)C(=O)NCP(=O)(OCc1ccc([N+](=O)[O-])cc1)OCc1ccc([N+](=O)[O-])cc1
BT-549
  GI50: 31.7 µM (inactive)
HCT-15
  GI50: 26.9 µM
U-251
  GI50: 21.6 µM (inactive)
OVCAR-5
  GI50: 48.2 µM (inactive)
786-0
  GI50: 92.9 µM (inactive)
UACC-62
  GI50: 18.3 µM (inactive)
M14
  GI50: 30.9 µM (inactive)
DU-145
  GI50: 31.6 µM (inactive)
SN12C
  GI50: 29.1 µM (inactive)
NCI-H522
  GI50: 31.6 µM (inactive)
HOP-92
  GI50: 31.5 µM (inactive)
PC-3
  GI50: 34.8 µM (inactive)
A549
  GI50: 27.7 µM (inactive)
TK-10
  GI50: 30.6 µM (inactive)
MCF7
  GI50: 48.9 µM (inactive)
IGROV-1
  GI50: 38.5 µM (inactive)
KM12
  GI50: 26.8 µM (inactive)
OVCAR-8
  GI50: 30.5 µM (inactive)
HT-29
  GI50: 17.7 µM (inactive)

## CCCCCCCCCCCCCCCCCCNc1ccn(C2OC(COP(=O)(O)OCC3OC(n4cc(C)c(=O)[nH]c4=O)CC3N=[N+]=[N-])C(O)C2O)c(=O)n1 (configuration not stated)
BT-549
  GI50: 19.7 µM (inactive)
HCT-15
  GI50: 18.8 µM
U-251
  GI50: 16.7 µM (inactive)
OVCAR-5
  GI50: 16.7 µM (inactive)
786-0
  GI50: 29.5 µM (inactive)
UACC-62
  GI50: 19.1 µM (inactive)
M14
  GI50: 20.2 µM (inactive)
DU-145
  GI50: 95.5 µM (inactive)
SN12C
  GI50: 21.7 µM (inactive)
NCI-H522
  GI50: 13.3 µM (inactive)
HOP-92
  GI50: 59.6 µM (inactive)
PC-3
  GI50: 8.81 µM (inactive)
A549
  GI50: 52 µM (inactive)
TK-10
  GI50: 16.8 µM (inactive)
MCF7
  GI50: 37 µM (inactive)
IGROV-1
  GI50: 19.1 µM (inactive)
KM12
  GI50: 20.3 µM (inactive)
OVCAR-8
  GI50: 21.8 µM (inactive)
HT-29
  GI50: 19.2 µM (inactive)

## C=C(C)CC1(O)C(=O)C(OCC)=C1OCC (configuration not stated)
BT-549
  GI50: > 100 µM (inactive)
HCT-15
  GI50: > 100 µM
U-251
  GI50: > 100 µM (inactive)
OVCAR-5
  GI50: > 100 µM (inactive)
786-0
  GI50: > 100 µM (inactive)
UACC-62
  GI50: > 100 µM (inactive)
M14
  GI50: > 100 µM (inactive)
DU-145
  GI50: > 100 µM (inactive)
SN12C
  GI50: > 100 µM (inactive)
NCI-H522
  GI50: > 100 µM (inactive)
HOP-92
  GI50: 48.6 µM (inactive)
PC-3
  GI50: > 100 µM (inactive)
A549
  GI50: > 100 µM (inactive)
TK-10
  GI50: > 100 µM (inactive)
MCF7
  GI50: > 100 µM (inactive)
IGROV-1
  GI50: > 100 µM (inactive)
KM12
  GI50: > 100 µM (inactive)
OVCAR-8
  GI50: > 100 µM (inactive)
HT-29
  GI50: > 100 µM (inactive)

## NC(Cc1ccccc1)c1nccs1 (configuration not stated)
BT-549
  GI50: > 100 µM (inactive)
HCT-15
  GI50: > 100 µM
U-251
  GI50: > 100 µM (inactive)
OVCAR-5
  GI50: > 100 µM (inactive)
786-0
  GI50: > 100 µM (inactive)
UACC-62
  GI50: > 100 µM (inactive)
M14
  GI50: > 100 µM (inactive)
DU-145
  GI50: > 100 µM (inactive)
SN12C
  GI50: > 100 µM (inactive)
NCI-H522
  GI50: > 100 µM (inactive)
HOP-92
  GI50: > 100 µM (inactive)
PC-3
  GI50: > 100 µM (inactive)
A549
  GI50: > 100 µM (inactive)
TK-10
  GI50: > 100 µM (inactive)
MCF7
  GI50: > 100 µM (inactive)
IGROV-1
  GI50: > 100 µM (inactive)
KM12
  GI50: > 100 µM (inactive)
OVCAR-8
  GI50: > 100 µM (inactive)
HT-29
  GI50: > 100 µM (inactive)
